Assay results from patent publication US12692274B2, “Tetrahydroisoquinoline derivatives for the treatment of red blood disorders and inflammatory diseases” (Sanofi, priority 2020, dated 2026).
“And” between values parts separate entries of the source, which are not always exact repeats. Equal values may be shown once.

Experiments:
[1] = system: NQO1 activation in BEAS-2B cells; assay: BEAS-2B cellular MTT assay of NQO1 activation, 0% HSA; format: cell-based
Outline: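 BEAS-2B cells grown in BEBM with BEGM SingleQuots (no GA-1000), kept below 70% confluence, seeded on collagen plates at a density giving 95-100% confluence after 48 h. Plates seeded in medium without HSA (0% HSA condition).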

[2] = biological target: HIS-Keap1 full length / Biotin-Nrf2 (16-mer) (Homo sapiens, UniProt Q14145); assay: biochemical
HIS-Keap1 full length / Biotin-Nrf2 (16-mer), sequence (Q14145 whole entry): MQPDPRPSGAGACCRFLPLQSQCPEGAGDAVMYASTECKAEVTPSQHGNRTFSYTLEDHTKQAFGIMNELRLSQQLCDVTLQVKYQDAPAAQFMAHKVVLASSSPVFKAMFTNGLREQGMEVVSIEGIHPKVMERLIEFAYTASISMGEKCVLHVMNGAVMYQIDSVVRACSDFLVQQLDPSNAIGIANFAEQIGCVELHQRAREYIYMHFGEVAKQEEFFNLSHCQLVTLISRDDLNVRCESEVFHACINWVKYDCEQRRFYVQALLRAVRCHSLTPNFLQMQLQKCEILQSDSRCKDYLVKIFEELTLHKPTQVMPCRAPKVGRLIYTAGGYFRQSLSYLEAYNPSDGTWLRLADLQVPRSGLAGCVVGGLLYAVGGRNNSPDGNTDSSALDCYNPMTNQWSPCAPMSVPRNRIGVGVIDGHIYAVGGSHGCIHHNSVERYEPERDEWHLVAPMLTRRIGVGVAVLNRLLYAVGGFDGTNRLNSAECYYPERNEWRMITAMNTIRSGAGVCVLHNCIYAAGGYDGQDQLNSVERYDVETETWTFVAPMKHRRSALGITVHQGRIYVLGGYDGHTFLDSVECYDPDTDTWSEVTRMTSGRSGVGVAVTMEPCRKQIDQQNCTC

[3] = system: NQO1 activation in BEAS-2B cells; assay: BEAS-2B cellular MTT assay of NQO1 activation, 0.3% HSA; format: cell-based
Outline: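 BEAS-2B cells (<70% confluent in culture, BEBM/SingleQuots without GA-1000) seeded in collagen plates with 0.3% or 0% HSA, reaching 95-100% confluency after 48 h at 37 °C, 5% CO2; MTT read-out.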

[4] = Homo sapiens, Serum Free W, read-out: BEAS EC50 (nM) Serum Free W
[5] = Serum Free W, read-out: BEAS EC50 (nM) Serum Free W
[6] = BEAS+ W, read-out: BEAS+ W EC50
[7] = Homo sapiens, BEAS+ W, read-out: BEAS+ W EC50
[8] = Homo sapiens, serum free, read-out: BEAS EC50 (nM) serum free
[9] = serum free, read-out: BEAS EC50 (nM) serum free
[10] = Homo sapiens, BEAS+, read-out: BEAS+ EC50

SMILES	EC50 [1, 4]	EC50 [1, 5]	IC50 [2]	EC50 [3, 6]	EC50 [3, 7]	EC50 [1, 8]	EC50 [1, 9]	EC50 [3, 10]	EC50 ([3]; BEAS+, read-out: BEAS+ EC50)
Cc1c2cnc3c1nnn3CCCC/C=C/Cc1ccc(cc1)C(=O)N1CCc3ccc(cc3C1)[C@H]2CC(=O)O [Compound 352]	21.9 nM	33 nM	0.0068 µM and 0.0077 µM	0.481 µM	0.417 µM				
Cc1c2cnc3c1nnn3CCCC/C=C/Cc1ccc(cc1)C(=O)N1CCc3ccc(cc3C1)[C@@H]2CC(=O)O [Compound 353]	16.8 nM	19.1 nM	0.0005 µM	0.109 µM	0.0723 µM				
Cc1c2cnc3c1nnn3CCCCCc1cccc(c1)C(=O)N1CCc3ccc(cc3C1)C2CC(=O)O (stereo not drawn) [Compound 354]	> 1000 nM		0.0201 µM and 0.0138 µM	2.13 µM	2.7 µM				
Cc1c2cnc3c1nnn3CCCCCCc1cccc(c1)C(=O)N1CCc3ccc(cc3C1)C2CC(=O)O (stereo not drawn) [Compound 355]	810 nM	1300 nM	0.0091 µM and 0.0093 µM	3.86 µM	4.7 µM				
Cc1c2ccc3c1nnn3CCCOCCc1ccc(c(F)c1)C(=O)N1CCc3ccc(cc3C1)[C@H]2CC(=O)O [Compound 357]	> 1000 nM	969 nM	0.0114 µM and 0.011 µM	1.71 µM	1.94 µM				
Cc1c2ccc3c1nnn3CCCCc1ccc3c(cn(C)c3c1)C(=O)N1CCc3ccc(cc3C1)C2CC(=O)O (stereo not drawn) [Compound 359]	> 1000 nM		0.0074 µM and 0.0081 µM		> 10 µM				
Cc1c2ccc3c1nnn3C/C=C/COCc1ccc(c(F)c1)C(=O)N1CCc3ccc(cc3C1)C2CC(=O)OCCO (stereo not drawn) [Compound 361]	> 1000 nM		0.918 µM and 0.74 µM	1.28 µM	1.66 µM				
Cc1c2ccc3c1nnn3CCCCCc1ccc3c(c1)c(cn3C)C(=O)N1CCc3ccc(cc3C1)C2CC(=O)O (stereo not drawn) [Compound 362, 2-(5,33-dimethyl-2-oxo-1,5,15,16,17-pentazaheptacyclo[22.5.3.26,9.118,22.03,7.015,19.027,31]pentatriaconta-3,6,8,16,18(33),19,21,24(32),25,27(31),34-undecaen-23-yl)acetic Acid]			0.05 µM and 0.0473 µM			3250 nM	3760 nM	> 10 µM	
Cc1c2ccc3c1nnn3CCOCCCc1ccc(c(F)c1)C(=O)N1CCc3ccc(cc3C1)[C@@H]2CC(=O)O [Compound 364]	56 nM	68.3 nM	0.0017 µM and 0.0016 µM	0.0926 µM	0.0988 µM				
Cc1c2ccc3c1nnn3CCOC/C=C/c1ccc(c(F)c1)C(=O)N1CCc3ccc(cc3C1)C2CC(=O)O (stereo not drawn) [Compound 365]	90 nM	171 nM	0.0034 µM and 0.0036 µM	0.214 µM	0.188 µM				
Cc1c2ccc3c1nnn3CCCOCCOc1cc(F)c(c(F)c1)C(=O)N1CCc3ccc(cc3C1)[C@@H]2[C@H](C)C(=O)O [Compound 366]			0.0056 µM and 0.0053 µM			580 nM	442 nM	1.07 µM	1.18 µM
Cc1c2ccc3c1nnn3CCCOCCOc1cc(F)c(c(F)c1)C(=O)N1CCc3ccc(cc3C1)[C@@H]2[C@@H](C)C(=O)O [Compound 367]			0.0004 µM			10.3 nM	12.5 nM	0.0122 µM	0.0123 µM
Cc1c2ccc3c1nnn3CCCOCCOc1ccc(c(F)c1)C(=O)N1CCc3ccc(cc3C1)[C@@H]2[C@H](C)C(=O)O [Compound 369]			0.0132 µM and 0.014 µM			2010 nM	1930 nM	2.08 µM	2.23 µM
Cc1cc2ccc1C(=O)N1CCc3ccc(cc3C1)[C@H]([C@H](C)C(=O)O)c1ccc3c(nnn3CCCOCCO2)c1C [Compound 370]			0.0043 µM and 0.0042 µM			1480 nM	1350 nM	1.64 µM	1.71 µM
Cc1cc2ccc1C(=O)N1CCc3ccc(cc3C1)[C@H]([C@@H](C)C(=O)O)c1ccc3c(nnn3CCCOCCO2)c1C [Compound 371]			0.0016 µM and 0.0017 µM			21.3 nM	22.1 nM	0.0236 µM	0.0288 µM
Cc1c2ccc3c1nnn3CCCCCn1cc(c3ccccc31)C(=O)N1CCc3ccc(cc3C1)C2CC(=O)O (stereo not drawn) [Compound 372]			0.0002 µM			994 nM	1020 nM	1.63 µM	0.861 µM
Cc1c2ccc3c1nnn3CCCCCCn1cc(c3ccccc31)C(=O)N1CCc3ccc(cc3C1)C2CC(=O)O (stereo not drawn) [Compound 373]			0.0036 µM and 0.0039 µM			2070 nM	2030 nM	2.03 µM	3.14 µM
Cc1c2ccc3c1nnn3CC/C=C/Cc1ccc(c(F)c1)C(=O)N1CCc3ccc(cc3C1)C2C(C)C(=O)O (stereo not drawn) [Compound 376]	2.1 nM	2.3 nM	0.0013 µM and 0.0014 µM	0.0045 µM and 0.0055 µM	0.0039 µM				
Cc1c2ccc3c1nnn3CCCCCCOc1ncc(cn1)C(=O)N1CCc3ccc(cc3C1)C2CC(=O)O (stereo not drawn) [Compound 377]			0.0057 µM and 0.0058 µM			2940 nM	2650 nM	3.17 µM	3.21 µM
Cc1c2ccc3c1nnn3CCCCCCOc1ccc(cn1)C(=O)N1CCc3ccc(cc3C1)C2CC(=O)O (stereo not drawn) [Compound 378]			0.0077 µM and 0.008 µM			133 nM	139 nM	0.213 µM	0.155 µM
Cc1c2ccc3c1nnn3CCCCCCOc1cnc(cn1)C(=O)N1CCc3ccc(cc3C1)C2CC(=O)O (stereo not drawn) [Compound 379, 2-(34-methyl-22-oxo-17-oxa-8,9,10,19,23,32-hexazahexacyclo[21.5.3.218,21.13,7.06,10.026,30]tetratriaconta-1(29),3,5,7(34),8,18,20,26(30),27,32-decaen-2-yl)acetic Acid]			0.0052 µM and 0.0054 µM			158 nM	147 nM	0.206 µM	0.193 µM
Cc1c2ccc3c1nnn3CCCCCCOc1ccc(nn1)C(=O)N1CCc3ccc(cc3C1)C2CC(=O)O (stereo not drawn) [Compound 380]			0.0059 µM and 0.0054 µM			1460 nM	1390 nM	1.23 µM	1.44 µM
Cc1c2ccc3c1nnn3CCCOCCOc1ccc(c(F)c1)C(=O)N1CCc3ccc(cc3C1)C2CC(=O)O (stereo not drawn) [Compound 383]			0.0009 µM			179 nM	162 nM	0.196 µM	0.187 µM
Cc1c2ccc3c1nnn3C/C=C/COCc1ccc(c(F)c1)C(=O)N1CCc3ccc(cc3C1)C2CC(=O)O (stereo not drawn) [Compound 386]			0.0019 µM and 0.002 µM			90.3 nM	89 nM	0.123 µM	0.105 µM
Cc1c2ccc3c1nnn3CCCCOCc1ccc(c(F)c1)C(=O)N1CCc3ccc(cc3C1)C2CC(=O)O (stereo not drawn) [Compound 387]			0.0015 µM and 0.0017 µM			95.9 nM	75.2 nM	0.0626 µM	0.0903 µM
Cc1c2ccc3c1nnn3CCCCCOc1ccc3ccc(cc3c1)C(=O)N1CCc3ccc(cc3C1)C2CC(=O)O (stereo not drawn) [Compound 388]			0.0016 µM			51.4 nM	44.2 nM	0.464 µM	0.877 µM
Cc1cc2ccc1C(=O)N1CCc3ccc(cc3C1)[C@H](CC(=O)O)c1ccc3c(nnn3CCC/C=C/C2)c1C [Compound 389]			0.0018 µM and 0.0019 µM			147 nM	153 nM	0.231 µM	0.409 µM
O=C(O)CC1c2ccc(cc2)OCCCCCCOc2ccc(cc2)C(=O)N2CCc3ccc1cc3C2 (stereo not drawn) [Compound 391]			0.276 µM and 0.265 µM			8.8 nM	7.9 nM	2.06 µM	1.95 µM
